Test results as given in US11998640B2, “Room temperature stable oral calcitonin formulation” (PARK THERAPEUTICS, INC., priority 2016, dated 2024).

What was measured:
[1] = more potent than human calcitonin; cited from earlier work
[2] = Binary mixture study: stability of rsCT with individual excipients stored at 40° C. (recovery and purity); assay type: physicochemical; details: for rsCT stability in binary mixture: 40° C.
Protocol: Binary mixtures were prepared by combining about 18 mg of rsCT with about 300 mg of each of the excipients, individually. Each binary mixture was evaluated in the presence or absence of 10% (w/w) water. Control samples included rsCT only. The mixtures were stored at 40° C., were pulled in duplicate after 7 days and 32 days, and were evaluated for recovery (assay activity relative to that of untreated and dried rsCT) and purity.

[3] = Water content of rsCT and excipient powders by Karl Fischer Coulometric Titration Method 1c; assay type: physicochemical; details: for Dried Water content: powder after drying in a lyophilizer; for Untreated Water Content: powder in its untreated state
Protocol: The stability of rsCT in the binary presence of the tablet core and subcoat excipients, as well as the effect of intrinsic and extrinsic moisture on the stability of those mixtures, was thoroughly examined. Each of the components including rsCT was evaluated in its untreated state and after drying in a lyophilizer (dried). The water content of each powder was determined by Karl Fischer Coulometric Titration Method 1c prior to preparation of the binary mixtures and is presented in Table 1, below.

Row | Average Purity (Area %) ([2]; 10% (v/w) Water Added, T = 7 days at 40° C.) | Average Purity (Area %) ([2]; 10% (v/w) Water Added, T = 32 days at 40° C.) | Average Purity (Area %) ([2]; Untreated Powders, T = 7 days at 40° C.) | Average Purity (Area %) ([2]; Untreated Powders, T = 32 days at 40° C.) | rsCT stability in binary mixture ([2]; in the presence of water and Kollicoat IR) | Molecule | Potency relative to human calcitonin [1] | rsCT stability in binary mixture ([2]; in the presence of water and Citric Acid DC F20) | rsCT stability in binary mixture ([2]; in the presence of water and Prosolv HD90) | Dried Water content [3] | Untreated Water Content [3]
1 | 98.2% Area % | 95.1% Area % | 98.9% Area % | 96.0% Area % | loss of rsCT activity and loss in purity | CC(C)C[C@H](NC(=O)[C@H](CCCCN)NC(=O)CNC(=O)[C@H](CC(C)C)NC(=O)[C@@H](NC(=O)[C@@H]1CSSC[C@H](N)C(=O)N[C@@H](CO)C(=O)N[C@@H](CC(N)=O)C(=O)N[C@@H](CC(C)C)C(=O)N[C@@H](CO)C(=O)N[C@@H]([C@@H](C)O)C(=O)N1)C(C)C)C(=O)N[C@@H](CO)C(=O)N[C@@H](CCC(N)=O)C(=O)N[C@@H](CCC(=O)O)C(=O)N[C@@H](CC(C)C)C(=O)N[C@@H](Cc1c[nH]cn1)C(=O)N[C@@H](CCCCN)C(=O)N[C@@H](CC(C)C)C(=O)N[C@@H](CCC(N)=O)C(=O)N[C@H](C(=O)N[C@@H](Cc1ccc(O)cc1)C(=O)N1CCC[C@H]1C(=O)N[C@@H](CCCNC(=N)N)C(=O)N[C@H](C(=O)N[C@@H](CC(N)=O)C(=O)N[C@H](C(=O)NCC(=O)N[C@@H](CO)C(=O)NCC(=O)N[C@H](C(=O)N1CCC[C@H]1C(N)=O)[C@@H](C)O)[C@@H](C)O)[C@@H](C)O)[C@@H](C)O [rsCT, salmon calcitonin] | 30-50 times | rapidly degraded with concomitant loss of recovery and purity | rapid loss of rsCT activity and non-concomitant loss in purity | 0.90% | 8.91%
2 | – | – | – | – | – | Magnesium Stearate | – | – | – | 3.51% | 5.00%
